Measurements taken from patent US12419893B2, “Methods and compositions for maximizing the prevention and/or reduction of various maladies and drug side-effects using uridine” (Tosk, Inc., priority 2018, dated 2025).

Assays:
[1] = cited from earlier work
female CD-1 mice = assay: Protection from 5-FU induced weight loss, study I (FIG. 2); assay type: in vivo; conditions: n=6
Procedure: The aim of this study was to explore whether uridine combined with a uridine phosphorylase inhibitor provided better protection from weight loss produced by 5-FU compared to uridine alone. Weight loss is one of the cardinal features of mucositis.
Four groups of female CD-1 mice were treated with daily ip injections of either PBS vehicle (Group 1), 80 mg/kg, 5-FU qdx5 (Groups 2), or 80 mg/kg, 5-FU qdx5 combined with 750 mg/kg uridine, bid, or 80 mg/kg, 5-FU qdx5 combined with 750 mg/kg uridine and 120 mg/kg bid TK-90, a representative 2,2′-anhydropyrimidine test article, sandwiched before and after the uridine doses. Controls include PBS alone at times mimicking the time for 5-FU and combined uridine and TK-90 treatments. There was n=6 animals in all groups.
Animals were sacrificed on Day 5 by cervical dislocation and properly disposed. Animal weights were recorded daily for 5 days and the % difference between Day 0 and Day 5 at termination calculated.
Results from the study are provided as percent weight gain/loss from pre-dose weight on Day 0 in FIG. 2. […] The statistical difference between Groups 2 and 3 was much less robust (p=0.036).

[2] = man and animals (Deng et al. 2017); cited from earlier work
C57BL/6 female mice = assay: Protection from decrease in plasma citrulline caused by 5-FU (FIG. 4); assay type: in vivo
Procedure: The chemotherapeutic challenge, 5-FU, was diminished plasma citrulline. […] Citrulline is a well-accepted surrogate marker for mucositis.
FIG. 4 depicts citrulline concentrations measured in plasma obtained at sacrifice on Day 3 from C57BL/6 female mice, approximately 20 g, treated on Day 0 with 200 mg/kg 5-FU, ip. On Days 0-2, the uridine and uridine+TK-90 group animals were dosed with […], bid. On Days 0-2, the uridine+TK-90 group animals were treated with 700 mg/kg TK-90, bid, in addition to the 5-FU on Day 0 and the uridine on Days 0-2. Animals in the PBS group were treated on Day 0-2 with PBS, bid. Data from all six mice in the PBS, uridine and uridine plus TK-90 groups were considered. Data from only five animals in the 5-FU group were considered because results from one animal was considered an outlier (unusually low response from the injected 5-FU). Plasma citrulline is a marker for mucosal health. […]
Thawed plasma samples from the study were analyzed for citrulline using a published LC/MS/MS-Isotope assay. (Jones et al., “Development and validation of a LC-MS/MS assay for quantitation of plasma citrulline for application to animal models of the acute radiation syndrome across multiple species,” Anal Bioanal Chem. (2014) 406 (19): 4663-75.).

O=c1ccn([C@@H]2O[C@H](CO)[C@@H](O)[C@H]2O)c(=O)[nH]1 [uridine]
toxicities of continuous infusions of high-dose uridine ([1]; continuous infusion): high fever, cellulitis, and superior vena cava syndrome | toxicity of high-dose oral uridine in clinical studies ([1]; oral, patients): severe patient diarrhea, phlebitis, and pyrogenic reactions | protection from 5-FU induced weight loss compared to the 5-FU group alone (female CD-1 mice; Day 5 vs Day 0, 5-FU 80 mg/kg qdx5, uridine 750 mg/kg bid, TK-90 120 mg/kg bid, ip): statistically significant but much less | half-life of administered uridine [2]: ~3 min | protection from 5-FU lowered plasma citrulline (C57BL/6 female mice; 5-FU 200 mg/kg ip Day 0, uridine 250 mg bid Days 0-2, TK-90 700 mg/kg bid Days 0-2, plasma Day 3, n=6): provided protection

O=c1[nH]cc(F)c(=O)[nH]1 [Compound 5-FU, 5-fluoro-2,4 (1H,3H)-Pyrimidinedione]
weight loss compared to the PBS vehicle control (percent weight change Day 5 vs Day 0) (female CD-1 mice; 80 mg/kg 5-FU qdx5 ip): robust weight loss | plasma citrulline compared to the PBS vehicle control (C57BL/6 female mice; 200 mg/kg 5-FU ip Day 0, plasma at Day 3, n=5): significant reduction in citrulline
